For one compound, concentration, Blood concentration and Brain concentration results are on record in patent US20100105688A1, “PHARMACEUTICAL COMPOSITIONS COMPRISING 3,5-DIAMINO-6-(2,3-DICHLOPHENYL)-1,2,4-TRIAZINE OR R(-)-2,4-DIAMINO-5-(2,3-DICHLOROPHENYL)-6-FLUOROMETHYL PYRIMIDINE AND AN NK1” (GLAXO GROUP LIMITED, priority 2007, published 2010).

Read-outs that look alike come from different tables or passages of the source.

This series is described as follows: Blood and brain concentrations in satellite animals of the MEST study. The class given is in vivo, rat. The settings on record: satellite rats; for concentration at 60 min: rat, po, n = 1. As to the method: Satellite animals (n=3/group) received the same drugs or combinations of drugs as the test groups, and were culled at the appropriate time after dosing. Blood and brain samples were taken for analysis of the drug concentrations in these compartments.
All doses were calculated as base. ENa9 and ENa13 were dosed via the subcutaneous (s.c.) route at 1 ml/kg in a 2% v/v DMSO/saline vehicle 30 minutes prior to test. ENa7 and ENa14 were dosed orally (p.o.) in a 1% w/v methylcellulose/water vehicle at 2 ml/kg, 60 minutes before test. Compound ENK6 was dosed with via the intraperitoneal (i.p.) route 60 minutes before the test or via the s.c. route 15 minutes before test. In both cases ENK6 was dissolved in saline.

Setting [1] is: ENK6 10 mg/kg s.c. + ENa7 1 mg/kg p.o., n = 2-3.
Where [2] appears, read: ENK6 10 mg/kg s.c. + ENa7 3 mg/kg p.o., n = 2-3.
Where [3] appears, read: ENK6 30 mg/kg s.c. + ENa7 1 mg/kg p.o., n = 2.
The mark [4] stands for this setting: ENK6 30 mg/kg s.c. + ENa7 3 mg/kg p.o., n = 2.

As for `Nc1nnc(-c2cccc(Cl)c2Cl)c(N)n1` [ENa7, 3,5-diamino-6-(2,3-dichlorophenyl)-1,2,4-triazine, reference compound], the concentration at 60 min (blood, 1 mg/kg, ENK6 veh + ENa7 1 mg/kg p.o. (Table 3), read-out: Blood concentration) is 311 ng/mL; the concentration at 60 min (blood, 1 mg/kg, ENK6 veh + ENa7 1 mg/kg p.o. (Table 4), read-out: Blood concentration) is 352 ng/mL; the concentration at 60 min (blood, 3 mg/kg, ENK6 veh + ENa7 3 mg/kg p.o. (Table 3), read-out: Blood concentration) was found to be 1180 ng/mL; the concentration at 60 min (blood, 3 mg/kg, ENK6 veh + ENa7 3 mg/kg p.o. (Table 4), read-out: Blood concentration) turned out to be 1350 ng/mL; the concentration at 60 min (brain, 1 mg/kg, ENK6 veh + ENa7 1 mg/kg p.o. (Table 3), read-out: Brain concentration) was determined as 517 ng/g; the concentration at 60 min (brain, 1 mg/kg, ENK6 veh + ENa7 1 mg/kg p.o. (Table 4), read-out: Brain concentration) is 588 ng/g. Moreover, the concentration at 60 min reads like this: (brain, 3 mg/kg, ENK6 veh + ENa7 3 mg/kg p.o. (Table 3), read-out: Brain concentration) 2830 ng/g; (brain, 3 mg/kg, ENK6 veh + ENa7 3 mg/kg p.o. (Table 4), read-out: Brain concentration) 2190 ng/g. Besides, the Blood concentration is recorded as 581 ng/mL under setting [1], 1603 ng/mL under setting [2], 461 ng/mL under setting [3] and 1404 ng/mL under setting [4]. The Brain concentration under setting [1] is recorded as 1125 ng/g, the Brain concentration under setting [2] is recorded as 2855 ng/g, the Brain concentration under setting [3] is 752 ng/g and the Brain concentration under setting [4] stood at 2096 ng/g.
